Source: patent publication US20110151485A1, “METHOD FOR SCREENING FOR ANTIANGIOGENIC AGENT, AND METHOD FOR SCREENING FOR ANTIANGIOGENIC SIGNAL GENE” (National University Corporation Tokyo Medical and Dental …, priority 2008, published 2011)

How the values were obtained:
Format in all cases: cell-based
[1] = system: PKR; assay: western blotting with phospho-specific anti-PKR antibody, aorta endothelial cells (rAEC); conditions: rat aorta derived primary endothelial cells, 4 or 8 hours
Method: Similarly, […] aorta endothelial cells (rAEC) were treated respectively with salubrinal (20 μM), rifampicin (40 μg/ml), or endostatin (1.0×10^−9 M); PKR inhibitor A (2-aminopurine, 10 mM) followed by endostatin (1.0×10^−9 M); PKR inhibitor B (8-(imidazole-4-ylmethylene)-6H-azolidino [5,4-g]benzodiazole-7-one, 0.3 μM) followed by rifampicin (40 μg/ml); and PKR inhibitor B (same as above, 0.3 μM) followed by endostatin (1.0×10^−9 M); and maintained at 37° C. for 4 or 8 hours. Total cell extracts from respective samples were subjected to western blotting analysis using phospho-specific anti-PKR antibody to determine the extent of PKR phosphorylation.

[2] = system: PKR; assay: fluorescent antibody staining with phospho-specific anti-PKR antibody, human umbilical vein endothelial cells
Method: Human umbilical endothelial cells cultured in HamF12K were treated with 40 μg/ml of rifampicin or 1.0×10^−9 M of endostatin, and maintained at 37° C. for 30 minutes. Cells were then stained using phospho-specific anti-PKR antibody as the primary antibody, and the presence of phosphorylated PKR was examined in the cells.
Similar experiments were also performed in human umbilical vein endothelial cells pre-treated with structural analog of PKR inhibitor (PKR negative) and then treated with 40 μg/ml rifampicin, as well as in human umbilical vein endothelial cells pre-treated with PKR inhibitor B (8-(imidazole-4-ylmethylene)-6H-azolidino [5,4-g]benzodiazole-7-one, 0.3 μM) and then treated with 40 μg/ml rifampicin or 1.0×10^−9 M endostatin, respectively.

[3] = system: ID1 gene; assay: real-time quantitative RT-PCR, ID1 gene, human umbilical vein endothelial cells; conditions: 4 to 8 hours
Method: (§2) Human umbilical vein endothelial cells cultured in HamF12K medium were treated with 40 μg/ml rifampicin or 1.0×10^−8 M endostatin, and maintained at 37° C. for 4 to 8 hours. […] After establishing the quantification condition, the amount of mRNA for these genes were quantified. […] Human umbilical vein endothelial cells cultured in HamF12K medium were treated with 20 μM salubrinal, and maintained at 37° C. for 4 to 8 hours. Subsequently, total cell extracts were subjected to real-time quantitative RT-PCR using TaqMan probe for ID1 gene, ID3 gene, integrinαv gene, Flt gene and Ephrin A1 gene, respectively. After establishing the quantification condition, the amount of mRNA for these genes were quantified.

[4] = system: Ephrin A1 gene; assay: real-time quantitative RT-PCR, Ephrin A1 gene, human umbilical vein endothelial cells; conditions: 4 to 8 hours
Method: as §2

[5] = system: Flt gene; assay: real-time quantitative RT-PCR, Flt gene, human umbilical vein endothelial cells; conditions: 4 to 8 hours
Method: as §2

[6] = system: integrinαv gene; assay: real-time quantitative RT-PCR, integrinαv gene, human umbilical vein endothelial cells; conditions: 4 to 8 hours
Method: as §2

[7] = system: ID3 gene; assay: real-time quantitative RT-PCR, ID3 gene, human umbilical vein endothelial cells; conditions: 4 to 8 hours
Method: as §2

[8] = system: PKR mRNA; assay: real-time quantitative RT-PCR, PKR mRNA, human umbilical vein endothelial cells; conditions: 40 μg/ml rifampicin or 1.0×10^−8 M endostatin, 4 to 8 hours
Method: Human umbilical vein endothelial cells cultured in HamF12K medium were treated with 40 μg/ml rifampicin or 1.0×10^−8 M endostatin, and maintained at 37° C. for 4 to 8 hours. Subsequently, total cell extracts were subjected to real-time quantitative RT-PCR using TaqMan probe for PKR mRNA, and the amount of PKR mRNA was quantified. Similar processes were repeated for human umbilical vein endothelial cell samples that were transfected with PKR siRNA prior to rifampicin or endostatin treatment.

[9] = system: PKR; assay: western blotting with phospho-specific anti-PKR antibody, human umbilical vein endothelial cells (hUVEC); conditions: 40 μg/ml rifampicin or 1.0×10^−9 M endostatin, 10 to 240 minutes
Method: (§1) Human retina vessel endothelial cells (hREC) or human umbilical vein endothelial cells (hUVEC) cultured in HamF12K medium supplemented with 10% bovine fetal serum and growth factors were treated with either 40 μg/ml rifampicin or 1.0×10^−9 M endostatin, and maintained at 37° C. for 10 to 240 minutes. Total cell extracts from the maintained cells were then subjected to western blotting using phospho-specific anti-PKR antibody to examine the time course of PKR phosphorylation.

[10] = system: PKR; assay: western blotting with phospho-specific anti-PKR antibody, human retina vessel endothelial cells (hREC); conditions: 40 μg/ml rifampicin or 1.0×10^−9 M endostatin, 10 to 240 minutes
Method: as §1

[11] = hUVEC transfected with PKR siRNA prior to 40 μg/ml rifampicin or 1.0×10^−8 M endostatin
[12] = hUVEC, 40 μg/ml rifampicin or 1.0×10^−8 M endostatin

O=C1Nc2ccc3ncsc3c2C1=Cc1cnc[nH]1 [PKR inhibitor B, reference compound]
effect of PKR inhibitor pre-treatment on rifampicin or endostatin induced PKR phosphorylation ([1]; inhibitor 0.3 μM): did not induce PKR phosphorylation | effect of PKR inhibitor pre-treatment on PKR phosphorylation after rifampicin or endostatin treatment (fluorescent antibody) ([2]; inhibitor 0.3 μM): did not occur

O=C(/C=C/c1ccccc1)NC(NC(=S)Nc1cccc2cccnc12)C(Cl)(Cl)Cl (stereo not drawn) [salubrinal, reference compound]
expression level of mRNA for ID1 gene ([3]; hUVEC, 20 μM salubrinal): decrease | expression level of mRNA for Ephrin A1 gene ([4]; hUVEC, 20 μM salubrinal): decrease | expression level of mRNA for Flt gene ([5]; hUVEC, 20 μM salubrinal): decrease | expression level of mRNA for integrinαv gene ([6]; hUVEC, 20 μM salubrinal): decrease | expression level of mRNA for ID3 gene ([7]; hUVEC, 20 μM salubrinal): decrease

endostatin
decrease of expression of ID1 gene in PKR siRNA treated samples [3, 11]: did not occur | expression level of ID1 gene [3, 12]: decreased | PKR expression (PKR mRNA) [8]: increased | decrease of expression of Ephrin A1 gene in PKR siRNA treated samples [4, 11]: did not occur | expression level of Ephrin A1 gene [4, 12]: decreased | phosphorylation of PKR in cells pre-treated with specific PKR inhibitor ([1]; PKR inhibitor B 0.3 μM followed by rifampicin 40 μg/ml or endostatin 1.0×10^−9 M): did not induce PKR phosphorylation | phosphorylation of PKR ([1]; rifampicin 40 μg/ml or endostatin 1.0×10^−9 M): induced phosphorylation of PKR | decrease of expression of Flt gene in PKR siRNA treated samples [5, 11]: did not occur | expression level of Flt gene [5, 12]: decreased | phosphorylation of PKR [9]: enhanced | decrease of expression of integrinαv gene in PKR siRNA treated samples [6, 11]: did not occur | expression level of integrinαv gene [6, 12]: decreased | PKR phosphorylation in the cell (fluorescent antibody) ([2]; 40 μg/ml rifampicin or 1.0×10^−9 M endostatin, 30 minutes): induced enhancement of PKR phosphorylation | PKR phosphorylation in cells pre-treated with specific PKR inhibitor (fluorescent antibody) ([2]; PKR inhibitor B 0.3 μM, then 40 μg/ml rifampicin or 1.0×10^−9 M endostatin): did not occur | decrease of expression of ID3 gene in PKR siRNA treated samples [7, 11]: did not occur | expression level of ID3 gene [7, 12]: decreased | phosphorylation of PKR [10]: enhanced
